Counter-ions that a name gives are not always drawn.

For one data set, the target named is Elastase. The data set is described as follows: Elastase inhibition. It is filed as biochemical.
The next data set concerns Propionibacterium acnes. The data set is described as follows: Inhibition of P. acnes (zone of inhibition). The data set is classed as cell-based. The note with it: for Zone of inhibition: P. acnes.
Data set [1] is described as follows: Antioxidant assay by DPPH radical scavenging activity. It is filed as biochemical.
Another data set concerns Tyrosinase. The data set is described as follows: Activity on Tyrosinase (inhibition). The data set is classed as biochemical. The source says:
Tyrosinase inhibition is one of the established in vitro methods of evaluating the skin fairness property.

The target of the next data set is Collagenase. The data set is described as follows: Collagenase inhibition. The data set is classed as biochemical.
The next data set is described as follows: Solubility data. To be noted: Results in gm/dl; 35 to 40° C. The data set is classed as physicochemical. The method, then: Results in gm/dl; tests were done at 35 to 40° C. temperature.
Data set [2] is described as follows: Hygroscopicity of the solid salt. It is filed as physicochemical. The note with it: solid salt form.
[3] abbreviates: Absence of sun light, Conc. 6.6 mg.
Setting [4] is: Exposure to sun light for 5 minutes, Conc. 55 μg.

As for `O=C(O)CCCCC1CCSS1` (racemic) [α-Lipoic acid, Alpha Lipoic acid, reference compound], on Elastase, the “IC50 for Elastase” value was 1400 µg/mL. The “Minimum concentration showing inhibition of P. acnes” value in the data set on Propionibacterium acnes worked out at 5%. The Zone of inhibition was 0 mm in the data set on Propionibacterium acnes (Conc. of the sample 0.5%); 0 mm with Propionibacterium acnes (Conc. of the sample 1%); 0 mm with Propionibacterium acnes (Conc. of the sample 2%); 7 mm in the data set with Propionibacterium acnes (Conc. of the sample 5%); 8 mm with Propionibacterium acnes (Conc. of the sample 10%). Also, the “% Scavenging (DPPH)” value was 50% in data set [1] (Absence of sun light, Conc. 6 mg) and 50% in data set [1] (Exposure to sun light for 5 minutes, Conc. 45 μg). Besides, in the data set with Tyrosinase (Conc. 100 μg), the “Tyrosinase % Inhibition” value is 51%. Further, on Collagenase, the “IC50 for Collagenase” value was determined as 1600 µg/mL.

As to `CN(C)CCNC(=O)CCCCC1CCSS1.O=C(O)/C=C\C(=O)O` (stereo not drawn) [R(+)LA Plus maleate, R-(+)-Maleate salt of N-[2-(dimethylamino)ethyl]-1,2-dithiolane-3-pentanamide], the melting point (in general, the temperature of the solid-liquid transition) was 125 to 127 °C. Also, the “IC50 for Elastase” value at Elastase stood at 1400 µg/mL. Besides, in “Solubility data”, the “Solubility, ETHANOL (95%)” value is on record as 6.84%; the “Solubility, PROPYLENE GLYCOL” value is 10%; the “Solubility, WATER (D. D.)” value was 60%. Besides, the “Minimum concentration showing inhibition of P. acnes” value with Propionibacterium acnes was 1.0%. Moreover, the Zone of inhibition in the data set on Propionibacterium acnes (Conc. of the sample 0.5%) was 0 mm. Besides, in the data set with Propionibacterium acnes (Conc. of the sample 1%), the Zone of inhibition is 8 mm. Besides, the Zone of inhibition in the data set with Propionibacterium acnes (Conc. of the sample 2%) amounted to 10 mm. Further, the Zone of inhibition with Propionibacterium acnes (Conc. of the sample 5%) worked out at 12 mm. In the data set with Propionibacterium acnes (Conc. of the sample 10%), this compound registered a Zone of inhibition of 15 mm. The “% Scavenging (DPPH)” value in data set [1] (setting [3]) was found to be 49%. In addition, the “% Scavenging (DPPH)” value in data set [1] (setting [4]) worked out at 47%. The “Tyrosinase % Inhibition” value with Tyrosinase (Conc. 120 μg) is 58.6%. The “IC50 for Collagenase” value at Collagenase was determined as 1600 µg/mL.

As for `CCC[C@@H]1C[C@@H](C(=O)N[C@@H]([C@H]2O[C@H](SC)[C@H](O)[C@@H](O)[C@H]2O)[C@H](C)Cl)N(C)C1` [Clindamycin, reference compound], the Zone of inhibition in the data set on Propionibacterium acnes (Conc. of the sample 0.5%) was 0 mm; with Propionibacterium acnes (Conc. of the sample 1%), 7 mm; with Propionibacterium acnes (Conc. of the sample 2%) it was 9 mm; in the data set with Propionibacterium acnes (Conc. of the sample 5%), 15 mm; in the data set with Propionibacterium acnes (Conc. of the sample 10%) it was 20 mm.

Take `CN(C)CCNC(=O)CCCCC1CCSS1` (racemic) [LA Plus maleate, (±)-Maleate salt of N-[2-(dimethylamino)ethyl]-1,2-dithiolane-3-pentanamide]: the “IC50 for Elastase” value against Elastase is 1400 µg/mL. In the data set “Solubility data”, the “Solubility, ETHANOL (95%)” value is 7.35%. In the data set “Solubility data”, the “Solubility, PROPYLENE GLYCOL” value worked out at 13%. In the data set “Solubility data”, the “Solubility, WATER (D. D.)” value is given as 60%. The “Minimum concentration showing inhibition of P. acnes” value in the data set with Propionibacterium acnes was 1.0%. Besides, the Zone of inhibition in the data set with Propionibacterium acnes (Conc. of the sample 0.5%) amounted to 0 mm; in the data set on Propionibacterium acnes (Conc. of the sample 1%) it was 7 mm; with Propionibacterium acnes (Conc. of the sample 2%) it was 8 mm; in the data set on Propionibacterium acnes (Conc. of the sample 5%), 9 mm; in the data set on Propionibacterium acnes (Conc. of the sample 10%), 11 mm. The results for the “% Scavenging (DPPH)” value in data set [1] (setting [3]) and in data set [1] (setting [4]) were 54% and 53%, respectively. The “Tyrosinase % Inhibition” value in the data set with Tyrosinase (Conc. 120 μg) turned out to be 58%. The “IC50 for Collagenase” value against Collagenase is 1600 µg/mL.

`CN(C)CCNC(=O)CCCCC1CCSS1.O=C(O)/C=C/C(=O)O` (racemic) [LA Plus fumarate, (±)-Fumarate salt of N-[2-(dimethylamino)ethyl]-1,2-dithiolane-3-pentanamide]: the melting point lay within 76 to 78 °C. The “IC50 for Elastase” value on Elastase came to 1400 µg/mL. In “Solubility data”, the “Solubility, ETHANOL (95%)” value worked out at 51%; the “Solubility, PROPYLENE GLYCOL” value was determined as 23%; the “Solubility, WATER (D. D.)” value was found to be 100%. The “Minimum concentration showing inhibition of P. acnes” value in the data set with Propionibacterium acnes came out at 2%. Besides, in the data set with Propionibacterium acnes (Conc. of the sample 0.5%), the Zone of inhibition was 0 mm. The Zone of inhibition in the data set with Propionibacterium acnes (Conc. of the sample 1%) is 0 mm. The compound further had a Zone of inhibition in the data set on Propionibacterium acnes (Conc. of the sample 2%) of 7 mm. In addition, the Zone of inhibition in the data set with Propionibacterium acnes (Conc. of the sample 5%) is listed as 8 mm. Further, the Zone of inhibition in the data set on Propionibacterium acnes (Conc. of the sample 10%) amounted to 10 mm. The “% Scavenging (DPPH)” value in data set [1] (Absence of sun light, Conc. 6.2 mg) turned out to be 57%. Besides, the “% Scavenging (DPPH)” value in data set [1] (setting [4]) was 50%. For the same compound, in the data set with Tyrosinase (Conc. 120 μg), the “Tyrosinase % Inhibition” value is 53%. The “IC50 for Collagenase” value against Collagenase stood at 1600 µg/mL.

Turning to `O=C1O[C@H]([C@@H](O)CO)C(O)=C1O` [Ascorbic acid, reference compound], the “% Scavenging (DPPH)” value in data set [1] (Absence of sun light, Conc. 6 μg) turned out to be 71%; in data set [1] (Exposure to sun light for 5 minutes, Conc. 6 μg), 59%.

For the compound `CN(C)CCNC(=O)CCCCC1CCSS1` (racemic) (as salt: maleate) [LA Plus maleate, (±)-Maleate salt of N-[2-(dimethylamino)ethyl]-1,2-dithiolane-3-pentanamide], the melting point was 125 to 127 °C.

Turning to `CN(C)CCNC(=O)CCCCC1CCSS1.Cl` (racemic) [(±)-LA-Plus hydrochloride, N-[2-(dimethylamino)ethyl]-1,2-dithiolane-3-pentanamide monohydrochloride], the Hygroscopicity result in data set [2] is “hygroscopic”.

The values above are taken from patent US7202270B2, “Convenient stable non-hygroscopic crystalline solid forms of racemic and chiral LA-plus salts: process for their manufacture and uses” (priority 2003, dated 2007).
